Marks after values point to notes of the source that are not given here.
How the values were obtained:
[1] = system: TNF-α production from mouse intraperitoneal macrophages; experiment: TNF-α production from mouse intraperitoneal macrophages, LPS + IFN-γ, ELISA (Experiment 2); assay type: cell-based; conditions: for TNF-α Concentration: LPS 2 μg/mL, IFN-γ 10 IU/mL
Procedure: The resulting cell suspension was added to a dish for tissue culture (product code: 353003, commercialized by Becton Drive Franklin Lakes, N.J., USA), and incubated in a 5% v/v CO2 incubator at 37° C. for 1.5 hours to attach the peritoneal exudate macrophages on the surface of the dish.
TNF-α in each collected supernatant was assayed with enzyme-linked immunosorbent assay (ELISA) (Experiment groups 2 to 5). […] The results are in Table 2 in parallel. The test for each Experiment group was conducted by using three wells. The assay for TNF-α was conducted on an ELISA using a commercialized rat anti-mouse TNF-α antibody (“Rat anti-mouse/rat TNF antibody” (product code: 551225), a product name of Becton Drive Franklin Lakes, N.J., USA) as a solid phase antibody; a commercialized biotin-labeled rat anti-mouse TNF-α antibody (“Biotin-Labeled Rat Anti-Mouse TNF Antibody”, product code: 554415, commercialized by Becton Drive Franklin Lakes, N.J., USA) as a secondary antibody; and an HRPO-labeled streptavidin.

[2] = system: mouse intraperitoneal macrophages; experiment: Cell viability of mouse intraperitoneal macrophages, AlamarBlue (Experiment 2); assay type: cell-based; conditions: LPS 2 μg/mL, IFN-γ 10 IU/mL, control = 100%
[3] = system: IL-10 in serum of mice administered with LPS; experiment: Serum IL-10 in LPS-administered mice, ANO i.v. (Experiment 7); assay type: in vivo, BALB/c mice; conditions: LPS 18 mg/kg i.p., serum two hours after LPS
Procedure: (§1) More specifically, 18 BALB/c female mice, 9-week-old, commercialized by Japan Charles River, Tokyo, Japan, were randomly divided into three groups, six heads each. An LPS specimen derived from E. coli (055:B5), commercialized by Sigma-Aldrich Corporation, St. Louis, Mo. USA, was dissolved in physiological saline and intraperitoneally administered to all the 6 mice in respective three groups at a dose of 18 mg/kg body weight of LPS (Experiment groups 1 to 3). […] To the six mice of the remaining one group was intravenously administered PBS in a liquid volume of 0.2 mL/head simultaneously with the administration of LPS (Experiment group 1).
(§2) For the mice in each group, they were collected blood at two hours after the LPS administration, followed by assaying the level of TNF-α, IL-6, IL-10, and IL-12 in each serum and averaging the data for each group. For the assay of the level of TNF-α, the same ELISA as in Experiment 2 was used and for the assay of the level of IL-6, the same ELISA as in Experiment 3 was used. […]

[4] = system: IL-12 in serum of mice administered with LPS; experiment: Serum IL-12 in LPS-administered mice, ANO i.v. (Experiment 7); assay type: in vivo, BALB/c mice; conditions: LPS 18 mg/kg i.p., serum two hours after LPS
Procedure: as §1, §2

[5] = system: mice with bacterial shock induced by LPS; experiment: LPS bacterial shock mice, survival, ANO i.v. one hour after LPS (Experiment 8); assay type: in vivo, BALB/c mice; conditions: LPS 18 mg/kg i.p., ANO 135 mg/kg i.v. at one hour after LPS
Procedure: An LPS specimen derived from E. coli ([…]), commercialized by Sigma-Aldrich Corporation, St. Louis, Mo. USA, was dissolved in PBS and intraperitoneally administered to all the seven mice in each group at a dose of 18 mg/kg body weight of LPS. […] For each group, the survival number of mice was confirmed up to 7 to 27 hours after administering LPS and determined the survival rate (%) of mice in each group.

[6] = system: TNF-α in serum of mice administered with LPS; experiment: Serum TNF-α in LPS-administered mice, oral administration (Experiment 11); assay type: in vivo, BALB/c mice; conditions: LPS 18 mg/kg i.p., serum 90 min after LPS
Procedure: (§3) The seven mice in another one group were orally administered through a gastric tube with 3′-glucosyl-adenosine N1-oxide, which had been dissolved in PBS, at a dose of 200 mg/kg body weight in a liquid volume of 0.2 mL/head (Experiment group 4). The seven mice in the remaining one group were orally administered through a gastric tube with PBS in a liquid volume of 0.2 mL/head (Experiment group 1). All the mice were intraperitoneally administered with an LPS specimen derived from E. coli (055:B5), commercialized by Sigma-Aldrich Corporation, St. Louis, Mo. USA, which had been dissolved in PBS, at a dose of 18 mg/kg body weight (Experiment groups 1 to 4). For each group, the mice were collected blood from their tail veins at 90 min after administering LPS, followed by assaying the concentrations of TNF-α, IL-6, and IL-10 contained in serum by the same method as in […].

[7] = system: IL-6 in serum of mice administered with LPS; experiment: Serum IL-6 in LPS-administered mice, oral administration (Experiment 11); assay type: in vivo, BALB/c mice; conditions: LPS 18 mg/kg i.p., serum 90 min after LPS
Procedure: as §3

SMILES: Nc1c2ncn([C@@H]3O[C@H](CO)[C@@H](O)[C@H]3O)c2nc[n+]1[O-] [ANO, adenosine N1-oxide]
- TNF-α Concentration ([1]; ANO 0.006 μM): 1573 pg/mL
- TNF-α Concentration ([1]; ANO 0.031 μM): 1637 pg/mL
- TNF-α Concentration ([1]; ANO 0.063 μM): 1136 pg/mL
- TNF-α Concentration ([1]; ANO 0.313 μM): 545 pg/mL
- concentration range in which the production of TNF-α was significantly inhibited ([1]; mouse intraperitoneal macrophages, LPS and IFN-γ): ≥ 0.063 µM
- Cell viability ([2]; ANO 0.006 μM): 100%
- Cell viability ([2]; ANO 0.031 μM): 100%
- Cell viability ([2]; ANO 0.063 μM): 100%
- Cell viability ([2]; ANO 0.313 μM): 100%
- IL-10 Concentration ([3]; ANO 68 mg/kg i.v.): 14.1 ng/mL
- IL-10 Concentration ([3]; ANO 135 mg/kg i.v.): 19.3 ng/mL
- IL-12 Concentration ([4]; ANO 68 mg/kg i.v.): 136** pg/mL
- IL-12 Concentration ([4]; ANO 135 mg/kg i.v.): 105** pg/mL
- Survival rate (%) of mice, 7 Hours ([5]; 7 hours): 100%
- Survival rate (%) of mice, 22 Hours ([5]; 22 hours): 86%
- Survival rate (%) of mice, 27 Hours ([5]; 27 hours): 57%
- Amount of TNF-α ([6]; oral 100 mg/kg): 1339 pg/mL
- Amount of TNF-α ([6]; oral 200 mg/kg): 874* pg/mL
- Amount of IL-6 ([7]; oral 100 mg/kg): 17.5 ng/mL
- Amount of IL-6 ([7]; oral 200 mg/kg): 16.0* ng/mL

Source: patent US9757408B2 (Hayashibara Co., Ltd., priority 2010, dated 2017)
